Inhibition data for four molecules are collected here from patent publication US20260184663A1, “INDENE COMPOUNDS, PHARMACEUTICAL COMPOSITIONS THEREOF, AND THEIR THERAPEUTIC APPLICATIONS” (NucMito Pharmaceuticals co. Ltd., priority 2022, published 2026).

Molecules are shown by their SMILES.

Common to all, as to format: cell-based
Assay [1] concerns MDA-MB-231 (breast cancer). In words: Antiproliferative activity (CCK-8 cell viability), MDA-MB-231. The settings on record: Homo sapiens, 72 h, read-out: Antiproliferative activity in cancerous cells, MDA-MB-231 (inhibition of cell growth); for inhibition at 3.3 µM: Compound concentration: 3.3 μM; for inhibition at 10 µM: Compound concentration: 10 μM. The method, boiled down:
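Growth inhibition of human MDA-MB-231 breast cancer cells was assessed with a Cell Counting Kit-8. Cells cultured in DMEM plus 10% FBS were seeded at 2,000-5,000 cells/well, treated after attachment, and kept 72 h at 37° C. CCK-8 solution (10 μL) was added for 4 h, and absorbance at 450 nm was compared with DMSO-treated controls.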

Assay [2] concerns HeLa (cervical cancer). In words: Antiproliferative activity (CCK-8 cell viability), HeLa. The note with it: Homo sapiens, 72 h, read-out: Antiproliferative activity in cancerous cells, HELA (inhibition of cell growth); for inhibition at 3.3 µM: Compound concentration: 3.3 μM; for inhibition at 10 µM: Compound concentration: 10 μM. The method, boiled down:
(§1)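 Growth inhibition graded in bands from percent viability against DMSO vehicle, read as CCK-8 absorbance at 450 nm. Compound tested at 3.3, 10 or 30 μM for 72 h, 37 °C; media contained 10% FBS: DMEM for HepG2/SW480, MEM for HeLa, F-12K for A549.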

In assay [3] the test system is A431 (epidermoid carcinoma). Kind of assay: Antiproliferative activity (CCK-8 cell viability), A431. The settings on record: Homo sapiens, 72 h, read-out: Antiproliferative activity in cancerous cells, A431 (inhibition of cell growth); for inhibition at 3.3 µM: A-431, Compound concentration: 3.3 μM; for inhibition at 10 µM: A-431, Compound concentration: 10 μM. Put shortly: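 This growth inhibition assay used A431 cells maintained in Dulbecco's modified Eagle's medium plus 10% fetal bovine serum. Cells were seeded in 96-well plates, treated with compound for 72 h at 37° C., and then given 10 μL CCK-8 solution. After a further 4 h, absorbance was read at 450 nm.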

For assay [4], the system named is SW480 (colon cancer). Kind of assay: Antiproliferative activity (CCK-8 cell viability), SW480. The note with it: Homo sapiens, 72 h, read-out: Antiproliferative activity in cancerous cells, SW480 (inhibition of cell growth); for inhibition at 3.3 µM: Compound concentration: 3.3 μM; for inhibition at 10 µM: Compound concentration: 10 μM. The method, boiled down: as §1

Assay [5] deals with A549 (lung adenocarcinoma). In words: Antiproliferative activity (CCK-8 cell viability), A549. The note with it: Homo sapiens, 72 h, read-out: Antiproliferative activity in cancerous cells, A549 (inhibition of cell growth); for inhibition at 3.3 µM: Compound concentration: 3.3 μM; for inhibition at 10 µM: Compound concentration: 10 μM. Put shortly: as §1
Assay [6] has as its system HepG2 (liver cancer). Kind of assay: Antiproliferative activity (CCK-8 cell viability), HepG2. The settings on record: Homo sapiens, 72 h, read-out: Antiproliferative activity in cancerous cells, HepG2 (inhibition of cell growth); for inhibition at 3.3 µM: Compound concentration: 3.3 μM; for inhibition at 10 µM: Compound concentration: 10 μM. The method, boiled down:
as §1

Assay [7] has as its system B16F10 (malignant melanoma). Kind of assay: Antiproliferative activity (CCK-8 cell viability), B16F10. The settings on record: Mus musculus, 72 h, read-out: Antiproliferative activity in cancerous cells, B16F10 (inhibition of cell growth); for inhibition at 3.3 µM: B16-F10, Compound concentration: 3.3 μM; for inhibition at 10 µM: B16-F10, Compound concentration: 10 μM. The method, boiled down:
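Cell growth inhibition was measured in B16F10 malignant melanoma cells with a Cell Counting Kit-8 viability assay. Cells were maintained in DMEM plus 10% fetal bovine serum, seeded at 2,000-5,000 cells/well in 96-well plates, and treated for 72 h at 37° C. Viability was expressed relative to DMSO-treated vehicle control wells.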

In the case of `CC1=C(CC(=O)O)c2cc(F)ccc2/C1=C\c1ccc(Oc2ccc(I)cc2)cc1` [C57, (Z)-2-(5-Fluoro-1-(4-(4-iodophenoxy)benzylidene)-2-methyl-1H-inden-3-yl)acetic acid], the inhibition (in general, the relative decrease from the control value, in per cent) at 3.3 µM in assay [1] was < 30%; in assay [2], < 30%; in assay [3], 30 to 50%; in assay [4] it was < 30%; in assay [5], 30 to 50%; in assay [6] it was 30 to 50%. Also, in assay [7], the inhibition at 3.3 µM was ≥ 50%. The inhibition at 10 µM in assay [1], in assay [2], in assay [3], in assay [4], in assay [5] and in assay [6] was ≥ 50% in each case. The inhibition at 10 µM in assay [7] is ≥ 50%.

Consider `COc1ccc2c(c1)C(CC(=O)O)=C(C)/C2=C/c1ccc(Oc2ccc(F)c(F)c2)cc1` [C75, (Z)-2-(1-(4-(3,4-Difluorophenoxy)benzylidene)-5-methoxy-2-methyl-1H-inden-3-yl)acetic acid], for which the inhibition at 3.3 µM in assay [1] is ≥ 50%; in assay [2] it was ≥ 50%; in assay [3], ≥ 50%; in assay [4] it was < 30%; in assay [5] it was 30 to 50%; in assay [6], < 30%. For the same molecule, the inhibition at 3.3 µM in assay [7] was ≥ 50%. Besides, the inhibition at 10 µM in assay [1] was ≥ 50%; in assay [2] it was ≥ 50%; in assay [3], ≥ 50%; in assay [4], 30 to 50%; in assay [5] it was ≥ 50%; in assay [6], ≥ 50%. Moreover, the inhibition at 10 µM in assay [7] was ≥ 50%.

Consider `CC1=C(CC(=O)O)c2cc(F)ccc2/C1=C\c1cccc(C2(c3ccccc3)SCCS2)c1` [C352, (Z)-2-(5-Fluoro-2-methyl-1-(3-(2-phenyl-1,3-dithiolan-2-yl)benzylidene)-1H-inden-3-yl)acetic acid], for which the inhibition at 3.3 µM in assay [1] is 30 to 50%; in assay [2], < 30%; in assay [3], < 30%; in assay [4], < 30%; in assay [5], < 30%; in assay [6], < 30%. In addition, the inhibition at 3.3 µM in assay [7] was < 30%. Further, the inhibition at 10 µM in assay [1], in assay [2], in assay [3], in assay [4], in assay [5] and in assay [6] was ≥ 50% each time. Also, the inhibition at 10 µM in assay [7] was ≥ 50%. In addition, the inhibition at 30 µM in assay [1] (Compound concentration: 30 μM) is ≥ 50%; in assay [2] (Compound concentration: 30 μM), ≥ 50%; in assay [3] (A-431, Compound concentration: 30 μM), ≥ 50%; in assay [4] (Compound concentration: 30 μM) it was ≥ 50%; in assay [5] (Compound concentration: 30 μM), ≥ 50%; in assay [6] (Compound concentration: 30 μM) it was ≥ 50%. Also, the inhibition at 30 µM in assay [7] (B16-F10, Compound concentration: 30 μM) was ≥ 50%.

Turning to `CC1=C(CC(=O)O)c2cc(F)ccc2/C1=C\c1ccc(Oc2ccc(F)cc2Cl)cc1` [C68, (Z)-2-(1-(4-(2-Chloro-4-fluorophenoxy)benzylidene)-5-fluoro-2-methyl-1H-inden-3-yl)acetic acid], the inhibition at 3.3 µM in assay [1] is < 30%; in assay [2] it was < 30%; in assay [3], 30 to 50%; in assay [4], ≥ 50%; in assay [5], < 30%; in assay [6], < 30%. Besides, the inhibition at 3.3 µM in assay [7] is < 30%. In addition, the inhibition at 10 µM in assay [1] is < 30%; in assay [2], < 30%; in assay [3], ≥ 50%; in assay [4] it was ≥ 50%; in assay [5], ≥ 50%; in assay [6], ≥ 50%. The inhibition at 10 µM in assay [7] was < 30%.
